Experimental data: US20070173532A1, “New Piperidine Antibiotics” (Actelion Pharmaceuticals Ltd., priority 2004, published 2007)
Converted amounts (≈) assume the structure as drawn.

Tests used:
Type in all cases: cell-based
S. Pneunoniae A70 = experiment: MIC by microdilution (NCCLS) against S. Pneunoniae A70; settings: cation-adjusted Mueller-Hinton Broth, pH 7.2-7.3
Description: (§1) These assays have been performed following the description given in “Methods for dilution Antimicrobial Susceptibility Tests for Bacteria that Grow Aerobically, 4th ed.; Approved standard: NCCLS Document M7-A4; National Committee for Clinical Laboratory Standards: Villanova, Pa., USA, 1997”. Minimal inhibitory concentrations (MICs; mg/l) were determined in cation-adjusted Mueller-Hinton Broth (BBL) by a microdilution method following NCCLS guidelines (National Committee for Clinical Laboratory Standards. Methods for Dilution Antimicrobial Susceptibility). The pH of the test medium was 7.2-7.3. All Examples were tested against several Gram positive and Gram negative bacteria.

E. faecalis 29212 = experiment: MIC by microdilution (NCCLS) against E. faecalis 29212; settings: pH 7.2-7.3; for MIC: Enterococcus faecalis, 29212, cation-adjusted Mueller-Hinton Broth
Description: as §1

S. aureus A798 = experiment: MIC by microdilution (NCCLS) against S. aureus A798; settings: pH 7.2-7.3; for MIC: Staphylococcus aureus, A798, cation-adjusted Mueller-Hinton Broth
Description: as §1

S. aureus 29213 = experiment: MIC by microdilution (NCCLS) against S. aureus 29213; settings: pH 7.2-7.3; for MIC: Staphylococcus aureus, 29213, cation-adjusted Mueller-Hinton Broth
Description: as §1

S. pneumoniae 49619 = experiment: MIC by microdilution (NCCLS) against S. pneumoniae 49619; settings: for MIC: Streptococcus pneumoniae, 49619, cation-adjusted Mueller-Hinton Broth, pH 7.2-7.3, read-out: MIC S. Pneunoniae 49619
Description: as §1

E. faecium A949 = experiment: MIC by microdilution (NCCLS) against E. faecium A949; settings: pH 7.2-7.3; for MIC: Enterococcus faecium, A949, cation-adjusted Mueller-Hinton Broth
Description: as §1

[1] = cation-adjusted Mueller-Hinton Broth

| MIC (S. Pneunoniae A70) [µg/mL] | MIC (E. faecalis 29212) [µg/mL] | MIC (S. aureus A798) [µg/mL] | MIC (S. aureus 29213) [µg/mL] | MIC (S. pneumoniae 49619) [µg/mL] | MIC (E. faecium A949) [µg/mL] | Structure (SMILES) | MIC S. Pneunoniae A70 (S. Pneunoniae A70) [µg/mL] | MIC E. faecalis 29212 (E. faecalis 29212; [1]) [µg/mL] | MIC S. aureus A798 (S. aureus A798; [1]) [µg/mL] | MIC S. aureus 29213 (S. aureus 29213; [1]) [µg/mL] | MIC S. Pneunoniae 49619 (S. pneumoniae 49619; cation-adjusted Mueller-Hinton Broth, pH 7.2-7.3) [µg/mL] | MIC E. faecium A949 (E. faecium A949; [1]) [µg/mL] |
| --- | --- | --- | --- | --- | --- | --- | --- | --- | --- | --- | --- | --- |
| – | – | – | – | – | – | COc1cnc2cccc(C(O)CC[C@@H]3CCN(C/C=C/c4ccccc4)C[C@@H]3C(=O)O)c2c1 (mixture of isomers) [Example 10, (3R,4R)-4-[(3RS)-3-hydroxy-3-(3-methoxy-quinolin-5-yl)-propyl]-1-trans-(3-phenyl-allyl)-piperidine-3-carboxylic acid] | 4 (≈ 8.68 µM) | 4 (≈ 8.68 µM) | 0.25 (≈ 0.543 µM) | 0.5 (≈ 1.09 µM) | 1 (≈ 2.17 µM) | 4 (≈ 8.68 µM) |
| 1 (≈ 2 µM) | 8 (≈ 16 µM) | 0.25 (≈ 0.499 µM) | 0.5 (≈ 0.999 µM) | 0.5 (≈ 0.999 µM) | 1 (≈ 2 µM) | COc1cnc2cccc(OCC[C@@H]3CCN(CCSc4cccs4)C[C@@H]3CCC(=O)O)c2c1 [Example 1, 3-{(3R,4S)-4-[2-(3-methoxy-quinolin-5-yloxy)-ethyl]-1-[2-(thiophen-2-ylsulfanyl)-ethyl]-piperidin-3-yl}-propionic acid] | – | – | – | – | – | – |
| 1 (≈ 2.05 µM) | 2 (≈ 4.11 µM) | 0.25 (≈ 0.514 µM) | 1 (≈ 2.05 µM) | 0.5 (≈ 1.03 µM) | 2 (≈ 4.11 µM) | COc1cnc2cccc(OCC[C@@H]3CCN(CCSc4cccs4)C[C@@H]3CCCO)c2c1 [Example 2, 3-{(3R,4S)4-[2-(3-methoxy-quinolin-5-yloxy)-ethyl]-1-[2-(thiophen-2-ylsulfanyl)-ethyl]-piperidin-3-yl}-propan-1-ol] | – | – | – | – | – | – |
